# According to paper PMC8286840, “Identifying SARS-CoV-2 antiviral compounds by screening for small molecule inhibitors of Nsp3 papain-like protease” (Biochemical Journal, 2021):
# Structures can show the parent of a compound that is named as a salt. Where two headings read alike, the source gives them in different places.
# Key:
# [1] = target: T1, SARS-CoV-2 PLpro (nsp3 1564–1878) (Severe acute respiratory syndrome coronavirus 2, UniProt P0DTD1); assay: biochemical; parameters: FRET-quenched peptide (Pro3) cleavage by PLpro, 10 min pre-incubation, slope over 20 min, normalised to no-compound control; conditions: low concentration screen, read-out: % of control remaining
# [2] = target: T1, SARS-CoV-2 PLpro (nsp3 1564–1878); assay: biochemical; parameters: FRET-quenched peptide (Pro3) cleavage by PLpro, 10 min pre-incubation, slope over 20 min, normalised to no-compound control; conditions: high concentration screen, read-out: % of control remaining
structure (smiles),measurement,setting,value
CC[C@H]1OC(=O)[C@H](C)[C@@H](O[C@H]2C[C@@](C)(OC)[C@@H](O)[C@H](C)O2)[C@H](C)[C@@H](O[C@@H]2O[C@H](C)C[C@H](N(C)C)[C@H]2O)[C@](C)(OC)C[C@@H](C)C(=O)[C@H](C)[C@@H](O)[C@]1(C)O [Clarithromycin],remaining activity at 1.25 µM,[1]; Well no.=2267,89%
same,remaining activity at 3.75 µM,[2]; Well no.=2267,89.2%
COc1cc(N)c(Cl)cc1C(=O)NC1CCN(Cc2ccccc2)CC1 [Clebopride (malate)],remaining activity at 1.25 µM,[1]; Well no.=7335,105%
same,remaining activity at 3.75 µM,[2]; Well no.=7335,102%
Clc1ccc(Cn2c(CN3CCCC3)nc3ccccc32)cc1 [Clemizole (hydrochloride)],remaining activity at 1.25 µM,[1]; Well no.=6558,93.9%
same,remaining activity at 3.75 µM,[2]; Well no.=6558,93.2%
Clc1ccc(Cn2c(CN3CCCC3)nc3ccccc32)cc1 [Clemizole hydrochloride],remaining activity at 1.25 µM,[1]; Well no.=226,98.5%
same,remaining activity at 3.75 µM,[2]; Well no.=226,98%
CC(C)(C)NCC(O)c1cc(Cl)c(N)c(Cl)c1 (centres unmarked) [Clenbuterol (hydrochloride)],remaining activity at 1.25 µM,[1]; Well no.=7371,103%
same,remaining activity at 3.75 µM,[2]; Well no.=7371,104%
CC(C)(C)NCC(O)c1cc(Cl)c(N)c(Cl)c1 (centres unmarked) [Clenbuterol],remaining activity at 1.25 µM,[1]; Well no.=1743,102%
same,remaining activity at 3.75 µM,[2]; Well no.=1743,102%
Cc1cn([C@H]2O[C@@H](CO)[C@H](O)[C@H]2F)c(=O)[nH]c1=O [Clevudine],remaining activity at 1.25 µM,[1]; Well no.=8012,98%
same,remaining activity at 1.25 µM,[1]; Well no.=8342,92.4%
same,remaining activity at 3.75 µM,[2]; Well no.=8012,100%
same,remaining activity at 3.75 µM,[2]; Well no.=8342,91.2%
CC(C)(C)C(=O)C(Oc1ccc(Cl)cc1)n1ccnc1 (centres unmarked) [Climbazole],remaining activity at 1.25 µM,[1]; Well no.=2269,98.8%
same,remaining activity at 3.75 µM,[2]; Well no.=2269,99.5%
NC1CCN(c2c(F)cc3c(=O)c(C(=O)O)cn(C4CC4)c3c2Cl)C1 (centres unmarked) [Clinafloxacin],remaining activity at 1.25 µM,[1]; Well no.=2271,93.2%
same,remaining activity at 3.75 µM,[2]; Well no.=2271,96.8%
CCCCCCCCCCCCCCCC(=O)O[C@@H]1[C@@H](O)[C@@H](O)[C@@H]([C@H](NC(=O)[C@@H]2C[C@@H](CCC)CN2C)[C@H](C)Cl)O[C@@H]1SC [Clindamycin palmitate.HCl],remaining activity at 1.25 µM,[1]; Well no.=1864,100%
same,remaining activity at 3.75 µM,[2]; Well no.=1864,102%
CCC[C@@H]1C[C@@H](C(=O)N[C@@H]([C@H]2O[C@H](SC)[C@H](OP(=O)(O)O)[C@@H](O)[C@H]2O)[C@H](C)Cl)N(C)C1 [Clindamycin phosphate],remaining activity at 1.25 µM,[1]; Well no.=5052,105%
same,remaining activity at 3.75 µM,[2]; Well no.=5052,104%
CCC(C)(Oc1ccc(C2(c3ccc(OC(C)(CC)C(=O)O)cc3)CCCCC2)cc1)C(=O)O (centres unmarked) [Clinofibrate],remaining activity at 1.25 µM,[1]; Well no.=5332,96.6%
same,remaining activity at 3.75 µM,[2]; Well no.=5332,98.1%
CCC(=O)O[C@]1(C(=O)CCl)[C@@H](C)C[C@H]2[C@@H]3CCC4=CC(=O)C=C[C@]4(C)[C@@]3(F)[C@@H](O)C[C@@]21C [Clobetasol propionate],remaining activity at 1.25 µM,[1]; Well no.=1924,98.4%
same,remaining activity at 1.25 µM,[1]; Well no.=8301,95.3%
same,remaining activity at 3.75 µM,[2]; Well no.=1924,99.3%
same,remaining activity at 3.75 µM,[2]; Well no.=8301,89.7%
O=P(O)(O)C(Cl)(Cl)P(=O)(O)O [Clodronic acid],remaining activity at 1.25 µM,[1]; Well no.=737,95.6%
same,remaining activity at 1.25 µM,[1]; Well no.=1862,92.6%
same,remaining activity at 3.75 µM,[2]; Well no.=737,96.9%
same,remaining activity at 3.75 µM,[2]; Well no.=1862,90.7%
Nc1nc(Cl)nc2c1ncn2[C@@H]1O[C@H](CO)[C@@H](O)[C@@H]1F [Clofarabine],remaining activity at 1.25 µM,[1]; Well no.=1927,103%
same,remaining activity at 1.25 µM,[1]; Well no.=8004,98.8%
same,remaining activity at 3.75 µM,[2]; Well no.=1927,103%
same,remaining activity at 3.75 µM,[2]; Well no.=8004,97.4%
CC(C)/N=c1\cc2n(-c3ccc(Cl)cc3)c3ccccc3nc-2cc1Nc1ccc(Cl)cc1 [Clofazimine],remaining activity at 1.25 µM,[1]; Well no.=5649,101%
same,remaining activity at 3.75 µM,[2]; Well no.=5649,100%
CCOC(=O)C(C)(C)Oc1ccc(Cl)cc1 [Clofibrate],remaining activity at 1.25 µM,[1]; Well no.=326,94.4%
same,remaining activity at 1.25 µM,[1]; Well no.=1899,94.1%
same,remaining activity at 1.25 µM,[1]; Well no.=4468,93.7%
same,remaining activity at 3.75 µM,[2]; Well no.=326,94.8%
same,remaining activity at 3.75 µM,[2]; Well no.=1899,94%
same,remaining activity at 3.75 µM,[2]; Well no.=4468,99.4%
CC(C)(Oc1ccc(Cl)cc1)C(=O)O [Clofibric Acid],remaining activity at 1.25 µM,[1]; Well no.=8394,87%
same,remaining activity at 3.75 µM,[2]; Well no.=8394,81.1%
CCCCCCC[N+](CC)(CC)CCCCc1ccc(Cl)cc1 [Clofilium tosylate],remaining activity at 1.25 µM,[1]; Well no.=6882,91.1%
same,remaining activity at 3.75 µM,[2]; Well no.=6882,90.5%
